Key:
mouse spleen lymphocytes = test: Proliferation of mouse spleen lymphocytes (ConA, MTT); format: cell-based; conditions: 20 μg/mL, 48 h
Protocol: Tris-NH4Cl was used to break the red blood cells, which were allowed to stand in an ice water bath for 4 min and centrifuged (1000 rpm, 5 min), the supernatant was discarded, and the cells were washed twice with sterile PBS.
The cells were statically cultured in a cell incubator at 37° C. for 48 h. After the completion of the culture, 20 μL of MTT was added to each well, and the culture was continued for 4 h. Finally, all the solutions in each well were discarded, 100 μL of DMSO was added to each well, and the mixture was shaken and detected by a microplate reader for OD value at 570 nm. 5 parallels were preformed for per well.

[1] = tested on: IL-1β production by mouse peritoneal macrophages; test: IL-1β production by mouse peritoneal macrophages (ELISA); format: cell-based; conditions: 20 μg/mL, 48 h
Protocol: (1) IL-1β production: mice were intraperitoneally injected with 1 mL of broth medium containing 6% starch, and three days later, the mouse peritoneal macrophages were aseptically taken, washed twice with a 1640 medium, adjusted to the cell concentration of 2×10^6 cells/mL, inoculated into a 24-well culture plate, 1 mL/well, incubated for 3 h in a cell culture incubator, and shaken once every 30 min, so that the cells were allowed to adhere sufficiently. Then, the cells were washed twice with a culture liquid to remove un-adhered cells. […] After administration, the culture was continued for 48 h, the cells were centrifuged at 1000 r/min for 15 min. The supernatant was taken as a sample for testing activity of IL-1β.
(2) Determination of IL-1β content: the detection was performed by using mouse IL-1β enzyme-linked immunosorbent assay kit from R&D company. […]

[2] = tested on: peritoneal capillary permeability in mice; test: Peritoneal capillary permeability in mice (Evans blue, HAc); format: in vivo, Kunming mice; conditions: 10 mg/kg by injection
Protocol: The drug was administered once by injection every 5 days, and the blank model group was given an equal volume of physiological saline for 5 days and fed normally. On the 5th day after the administration, a 5 g/L of Evans blue physiological saline solution was injected into the tail vein at […], followed by intraperitoneal injection ([…]) HAc solution (6 mL/L) to induce inflammation. After 20 min, the mice were sacrificed by cervical dislocation. 5 mL of physiological saline was intraperitoneally injected, the abdomen was gently rubbed for 2 min, the abdominal cavity was cut, a peritoneal washing solution was collected and centrifuged at 4000 rpm for 10 min, 1 mL of supernatant was taken, and 3 mL of physiological saline was added to obtain a 4 mL of dilution. The absorbance OD value of the dilution was measured by an ultraviolet spectrophotometer at a wavelength of 590 nm, and the amount of pigment exudation was expressed by the OD590 nm value, and peritoneal capillary permeability in mice was examined.

[3] = tested on: toe swelling in rat induced by carrageenan; test: Acute inflammation of toe swelling in rat induced by carrageenan; format: in vivo, SD rats; conditions: 10 mg/kg
Protocol: 80 SD rats were randomly divided into 8 groups with 10 mice for each group. […] The drug was administered once by injection every 5 days, and the model group was given an equal volume of physiological saline for 3 days and fed normally. On the third day after the administration, 0.1 mL of 1% carrageenan was injected subcutaneously into the right hind toes of the rats to induce inflammation. The foot volume was measured at 1 h, 3 h, 5 h, and 7 h after inflammation. The swelling degree of the foot was calculated according to the following formula: the swelling degree of the foot (mL)=the volume of the foot after inflammation−the volume before inflammation. The number of milliliters of spilled liquid was recorded (method: the protruding point of the right joint was circled with a ballpoint pen and used as a measurement mark, and the right hind feet of the rats were sequentially placed in the volume measuring device, so that the hind limbs were exposed outside the cylinder, and the depth of the immersion was limited to the overlap of the circle and the liquid level. After the foot entered the liquid, the liquid level was raised, and the volume of the spilled liquid was the volume of the right hind foot of the rat, and the normal volume of the right hind foot of each mouse is sequentially determined).

[4] = tested on: human retinal vascular endothelial cell (HRCEC); test: MTT assay, proliferation of human retinal vascular endothelial cell (HRCEC); format: cell-based; conditions: 5 μg/mL, 48 h
Protocol: The activity of the integrin blocker polypeptide to inhibit proliferation of human retinal vascular endothelial cells was examined by MTT assay. HRCEC cells were cultured in a 5% CO2 incubator at 37° C. to a density of 90% or more, and then collected by trypsinization. The cells were resuspended in the culture liquid and counted under a microscope. The cell concentration was adjusted to 3.0×10^4 cells/mL. The cell suspension was inoculated into a 96-well plate, 100 μL per well, and cultured overnight in a 5% CO2 incubator at 37° C. […] After the cells were fully adhered, each dilution was added to a 96-well plate, 100 μL per well, respectively. […] 20 μL of 5 mg/mL MTT was added to each well of a 96-well plate, and incubation was continued for 4 hours. The medium was aspirated and 100 μL of DMSO was added per well for dissolution. The absorbance was measured at 570 nm with a microplate reader with a reference wavelength of 630 nm, and the proliferation inhibition (PI) was calculated. The formula was as follows: […]
where Ntest is the OD value of the test group and Ncontrol is the OD value of the blank control group.
The test was repeated 5 times independently. The results obtained from the test were calculated as mean±SD, and statistical t-test was performed. P<0.05 was considered as a significant difference, and P<0.01 was considered as an extremely significant difference.

[5] = tested on: angiogenesis of chicken embryo chorioallantoic membrane; test: Chicken embryo chorioallantoic membrane (CAM) angiogenesis assay; format: in vivo, White Leghorn chicken embryos; conditions: 10 μg, 72 hours
Protocol: The study has shown that the biosynthesis rate of collagen reached the maximum on the 8th to 11th day of chicken embryo development, which was the most vigorous stage of angiogenesis, and the body's immune system had not yet been fully established at that time, and thus the chicken embryos developed to the 8th day was selected to be administered. […] The following steps were used:
(1) The White Leghorn chicken embryos on day 6 were cultured in a 37° C. incubator at 60%-70% humidity for two days.
(2) A 1.0 cm×1.0 cm window was drilled above the chicken embryo air sac, and the inner membrane was torn off with forceps to expose the chorioallantoic membrane. Lens paper having a diameter of 5 mm was used as a loading carrier, and was placed on the chorioallantoic membrane of the chicken embryo air sac. […]
(3) The chicken embryo air sac was sealed with a sterile transparent tape, and after culturing at 37° C. for 72 hours, the chicken embryo air sac was opened, and a fixative (formaldehyde:acetone=1:1) was added for fixation for 15 minutes. The chorioallantoic membrane to which the lens paper was adhered was taken out, the distribution of the new blood vessels was observed, and the new blood vessels were counted and photographed. Five replicates were set for each dose and the results were statistically analyzed.

| Compound | A570 nm/A630 nm (mouse spleen lymphocytes) | PI (%) (mouse spleen lymphocytes) | IL-1β [1] [pg/mL] | PI (%) ([1]; IL-1β) | Exudation rate (OD590) [2] | Swelling degree ([3]; 1 h after carrageenan) [mL] | Swelling degree ([3]; 3 h after carrageenan) [mL] | Swelling degree ([3]; 5 h after carrageenan) [mL] | Swelling degree ([3]; 7 h after carrageenan) [mL] | A570 nm/A630 nm [4] | Blood vessel number [5] |
| --- | --- | --- | --- | --- | --- | --- | --- | --- | --- | --- | --- |
| C[C@@H]1C[C@H]2[C@@H]3CCC4=CC(=O)C=C[C@]4(C)[C@@]3(F)[C@@H](O)C[C@]2(C)[C@@]1(O)C(=O)CO [Dex, dexamethasone, reference compound] | 0.3468 ± 0.1144 | 41.11 | 322.46 ± 20.56 | 61.38 | 0.27 ± 0.03 | 0.21 ± 0.11 | 0.26 ± 0.10 | 0.26 ± 0.11 | 0.25 ± 0.09 | – | – |
| bevacizumab [Avastin ®, reference compound] | – | – | – | – | – | – | – | – | – | 0.4544 | 63 ± 17 |

From patent publication US11542311B2, “Fusion protein, preparation method therefor and application thereof in preparing ophthalmic disease treatment, anti-inflammation and anti-tumor medicament” (JIANGSU RONGTAI BIOTECH CO., LTD., priority 2017, dated 2023)
